Values joined by “and” are separate entries in the source; they are usually repeats but may differ in a detail not shown here. Equal values may be shown once.

The values that follow come from patent publication US6626982B1, “Compound storage” (AstraZeneca AB, priority 1998, dated 2003).

Series [1] can be described thus: Adsorption onto Florisil and desorption into DMSO, quantified by RP-HPLC against a 10 mM control solution. It is filed as physicochemical. The following applies: for Conc. (mM) of Compound in DMSO after desorption from Florisil / Conc. (mM) of Z-Trp-NH2 in DMSO after desorption from Florisil: control 10.00; for Conc. (mM) of Z-Trp-NH2 in DMSO after desorption from Florisil: nominal conc. 10 mM. As to the method:
1. 16.9 mg (50 μmol) of Z-Trp-NH2 in DMSO (0.5-5 ml) added to carrier (100 mg, 225 mg and 475 mg).
3. Evaporate off DMSO using centrifugal evaporator (70°/1 hr).
4. Mix resulting solid with spatula to ensure distribution as even as possible.
5. Weigh duplicate samples (to contain nominal 10 μmol Z-Trp-NH2) into vials.
6. Add DMSO to achieve 10^−2M conc. (nominal).
7. Dilute for HPLC analysis and compare with 10^−2M control solution of Z-Trp-NH2 similarly diluted.
Z-Trp-NH2 (169 mg) was dissolved in DMSO (50 ml) to give a 10 mM solution. Aliquots of the solution (5 ml, 50 μmol) were added to a 100 mg and a 225 mg sample of Florisil™ in 2-dram glass vials. The samples were vortexed for approximately one minute and the DMSO removed in vacuo by evaporation at 70° for 1 h in a centrifugal evaporator (GeneVac Atlas HT4™). After evaporation the samples were removed and checked visually. In each case dry solids were obtained in the form of free flowing powders virtually indistinguishable from the original Florisil™. The nominal loadings of the adsorbed samples were calculated as 207 and 427 μmol/g of Z-Trp-NH2.
Duplicate amounts (11.7 and 24.2 mg respectively) of the 427 and 207 μmol/g Z-Trp-NH2/Florisil™ samples were weighed into glass vials. DMSO (0.5 ml) was added to each vial and the vials were agitated gently for 15 min to give a nominal concentration of 10 mM of Z-Trp-NH2. Aliquots from each vial were diluted 100-fold with CH3CN and analysed by RP-HPLC monitoring by UV at […]. The peak areas obtained for the desorbed Z-Trp-NH2 DMSO solutions were compared with those obtained using a 10 mM control soln of Z-Trp-NH2 in DMSO similarly diluted.
Using a procedure analogous to that used for Z-Trp-NH2 the following results were obtained (Table 4 and FIG. 3)

Series [2] is described as follows: Stability of Fmoc-Arg in DMSO and when adsorbed onto Florisil (HPLC). It is filed as physicochemical.
The mark [3] stands for this setting: ratio of compound to Florisil 200.0 μmol/g.
[4] abbreviates: ratio of compound to Florisil 200.1 μmol/g.
[5] abbreviates: ratio of compound to Florisil 397.5 μmol/g.
[6] abbreviates: ratio of compound to Florisil 400.6 μmol/g.

As to `N=C(N)NCCC[C@H](NC(=O)OCC1c2ccccc2-c2ccccc21)C(=O)O` [Fmoc-Arg, Fmoc-Arginine], the “Overall adsorption/desorption result with Florisil” value in series [1] (comparable to those obtained with Z-Trp-NH2) is on record as “apparent low release”. Moreover, the “Conc. (mM) of Compound in DMSO after desorption from Florisil” value (“Conc. (mM) of Compound in DMSO” below) stood at 7.70 mM in series [1] (setting [3]), 7.65 mM in series [1] (setting [4]), 5.11 mM in series [1] (setting [5]) and 5.53 mM in series [1] (setting [6]). In addition, in series [2] (10^-2 M in DMSO, after 24 hours at ambient temperature), the “Decomposition in DMSO” value is given as “decomposes completely”. In addition, the “Stability when adsorbed onto Florisil” value in series [2] (adsorbed onto Florisil, some decomposition during adsorption/desorption when DMSO is present) was “stable”. In series [2] (control experiment, no Florisil added), the “Detection by HPLC after centrifugal evaporation and dissolution into DMSO” value is “not possible to detect any Fmoc-Arg”.
For the molecule `Cl.NC(=O)[C@@H](N)Cc1c[nH]c2ccccc12` [Trp-NH2.HCl, Tryptophan amide hydrochloride], the “Conc. (mM) of Compound in DMSO” value is listed as 10.04 mM in series [1] (setting [3]), 10.31 mM in series [1] (setting [4]), 11.93 mM in series [1] (setting [5]) and 10.51 mM in series [1] (setting [6]).
For the molecule `NC(=O)[C@H](Cc1c[nH]c2ccccc12)NC(=O)OCc1ccccc1` [Z-Trp-NH2], the “Conc. (mM) of Z-Trp-NH2 in DMSO after desorption from Florisil” value in series [1] (ratio of Z-Trp-NH2 to Florisil 200 μmol/g) was 9.21 mM and 9.79 mM; in series [1] (ratio of Z-Trp-NH2 to Florisil 400 μmol/g), 10.26 mM and 10.09 mM.
As to Boc-Naphthylalanine [Boc-Nal], the “Conc. (mM) of Compound in DMSO” value in series [1] (setting [3]) came to 9.10 mM; in series [1] (setting [4]) it was 9.06 mM; in series [1] (setting [5]) it was 9.64 mM; in series [1] (setting [6]) it was 9.64 mM.
Take Boc-Pyridylalanine [Boc-Pal]: the “Conc. (mM) of Compound in DMSO” value in series [1] (setting [3]) was 9.75 mM; in series [1] (setting [4]) it was 14.20 mM; in series [1] (setting [5]) it was 11.06 mM; in series [1] (setting [6]), 10.63 mM.
